Data as given in patent US6610860B2, “C7 ester substituted taxanes” (FSU Research Foundation, Inc., priority 2000, dated 2003).

Test system: HCT116 cells
Assay: In vitro cytotoxicity measured by the cell colony formation assay
Format: cell-based
Settings: 72 h drug incubation, colonies counted after 7 days, ID50 = drug concentration producing 50% inhibition of colony formation, read-out: IN VITRO ID 50 (nm) HCT116
Description: In Vitro Cytotoxicity Measured by the Cell Colony Formation Assay
Four hundred cells (HCT116) were plated in 60 mm Petri dishes containing 2.7 mL of medium (modified McCoy's 5a medium containing 10% fetal bovine serum and 100 units/mL penicillin and 100 µg/mL streptomycin). The cells were incubated in a CO2 incubator at 37° C. for 5 h for attachment to the bottom of Petri dishes. The compounds identified in Example 2 were made up fresh in medium at ten times the final concentration, and then 0.3 mL of this stock solution was added to the 2.7 mL of medium in the dish. The cells were then incubated with drugs for 72 h at 37° C. At the end of incubation the drug-containing media were decanted, the dishes were rinsed with 4 mL of Hank's Balance Salt Solution (HBSS), 5 mL of fresh medium was added, and the dishes were returned to the incubator for colony formation. The cell colonies were counted using a colony counter after incubation for 7 days.

## CC(=O)O[C@H]1C(=O)[C@@]2(C)[C@H]([C@H](OC(=O)c3ccccc3)[C@]3(O)C[C@H](OC(=O)[C@H](O)[C@@H](NC(=O)c4ccccc4)c4ccccc4)C(C)=C1C3(C)C)[C@]1(OC(C)=O)CO[C@@H]1C[C@@H]2O [taxol]
  IC50: 2.1 nM
